Source: PubChem BioAssay (NCI)
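Assay format: 96-well plates, 48-hour exposure. GI50 = concentration required for 50% inhibition of growth. At the TGI there is no net growth.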

Legend:
Assay in all cases: NCI-60 cell line screen, 48 h
PC-3 prostate = test system: PC-3 prostate
NCI-H460 lung = test system: NCI-H460 lung
SK-MEL-28 melanoma = test system: SK-MEL-28 melanoma
U251 CNS = test system: U251 CNS
SF-539 CNS = test system: SF-539 CNS
A549 NSCLC = test system: A549 NSCLC
OVCAR-8 ovarian = test system: OVCAR-8 ovarian
COLO 205 colon = test system: COLO 205 colon
MALME-3M melanoma = test system: MALME-3M melanoma
OVCAR-5 ovarian = test system: OVCAR-5 ovarian

Row | Structure (SMILES) | GI50 (PC-3 prostate) [nM] | TGI (PC-3 prostate) [nM] | GI50 (NCI-H460 lung) [nM] | TGI (NCI-H460 lung) [nM] | GI50 (SK-MEL-28 melanoma) [nM] | TGI (SK-MEL-28 melanoma) [nM] | GI50 (U251 CNS) [nM] | TGI (U251 CNS) [nM] | GI50 (SF-539 CNS) [nM] | TGI (SF-539 CNS) [nM] | GI50 (A549 NSCLC) [nM] | TGI (A549 NSCLC) [nM] | GI50 (OVCAR-8 ovarian) [nM] | TGI (OVCAR-8 ovarian) [nM] | GI50 (COLO 205 colon) [nM] | TGI (COLO 205 colon) [nM] | GI50 (MALME-3M melanoma) [nM] | TGI (MALME-3M melanoma) [nM] | GI50 (OVCAR-5 ovarian) [nM] | TGI (OVCAR-5 ovarian) [nM]
1 | CCOc1cc(/C=N\NC(=O)N/N=C/c2ccc(O)c(OCC)c2)ccc1O | 3510 | > 100000 | 2880 | > 67700 | 10300 | > 100000 | 1750 | > 100000 | 1420 | > 100000 | 6950 | > 100000 | 4260 | > 100000 | 3850 | 26600 | 973 | > 100000 | 59300 | > 100000
2 | N#Cc1c(Oc2ccc(F)c(NC(=O)Cc3cccc(C(F)(F)F)c3)c2)ccc2nc(NC(=O)C3CC3)sc12 | 1560 | > 100000 | 378 | > 100000 | 29.2 | > 100000 | 491 | > 100000 | 436 | > 27200 | 703 | > 100000 | 731 | > 100000 | 29.9 | 2630 | 10.1 | 47.6 | 412 | > 100000
3 | CNCCOc1nc2c3cnccc3cc(-c3cc(OC)c(OC)c(OC)c3)c2c2ccncc12 | 47.1 | 1120 | < 10 | 103 | 125 | 525 | 24.1 | 523 | 43.8 | 225 | 10 | 101 | 41.8 | 466 | 57.5 | 698 | 39.2 | 194 | 40.3 | 426
4 | CC[C@H](C)[C@H](NC(=O)C12CC(NC(C)=O)(C1)C2)C(=O)N(C)[C@H](C[C@@H](OC(C)=O)c1nc(C(=O)N[C@@H](Cc2ccccc2)C[C@H](C)C(=O)OC)cs1)C(C)C | 194 | > 16700 | 320 | > 16700 | 1810 | > 16700 | 433 | > 16700 | 438 | 1150 | 907 | > 16700 | 519 | > 16700 | 99.1 | 1060 |  | > 16700 | > 3890 | > 16700
5 | Cc1ccc(-c2cc(/C=N/O)on2)cc1 | 63000 | > 100000 | 63600 | > 100000 | > 100000 | > 100000 | 54300 | > 100000 | > 100000 | > 100000 | 51000 | > 100000 | > 100000 | > 100000 | 49900 | > 100000 | > 100000 | > 100000 | > 100000 | > 100000
6 | Cc1cc2c(C(C)C)c(O)c(O)c(C=O)c2c(O)c1-c1c(C)cc2c(C(C)C)c(O)c(O)c(C=O)c2c1O (tested in a mixture with another compound) | 455 | 3420 | 484 | 1870 | 1640 | 3640 | 502 | 1930 | 1330 | 4420 | 468 | 2380 | 1180 | 3490 | 1360 | 2870 | 1740 | 5010 | 1650 | 5260
7 | CN(C)CCOc1nc2ccccc2c2c1-c1ccc(Cl)cc1C2=O | 1340 | 7690 | 365 | 1300 | 1650 | 3150 | 380 | 1590 | 1070 | 2590 | 458 | 5250 | 386 | 2220 | 443 | 1720 | 1070 | 2430 | 1270 | 
8 | CN(NC(=O)CC(=O)NN(C)C(=S)c1ccc(Cl)cc1)C(=S)c1ccc(Cl)cc1 | 10700 | 56500 | 4380 | 63700 | 15000 | 54500 | 21300 | > 100000 | 27600 | > 100000 | 3860 | 71700 | 23700 | > 100000 | 23000 | 48500 | 13200 | 52000 | 25900 | > 100000
9 | Cc1cccnc1CNC1CC(NCc2ncccc2C)CC(NCc2ncccc2C)C1 (stereo unspecified) | 2300 | 4520 | 2410 | 6030 | 3170 | 12400 | 1810 | 3360 | 2920 | 9380 | 2010 | 4210 | 2200 | 4870 | 2030 | 4250 | 2840 | 9460 | 1920 | 5230
10 | C=C=[CH][Sn]([c]1ccccc1)([c]1ccccc1)[c]1ccccc1 | 1460 | 3680 | 1440 | 3020 | 1710 | 3340 | 1660 | 3160 | 2080 | 4340 | 1910 | 4420 | 1850 | 3680 | 1520 | 2870 | 1740 | 3570 | 1460 | 2900
11 | COc1ccc(-c2cncn2-c2cc(OC)c(OC)c(OC)c2)cc1F | 17.9 | > 100000 | < 10 | > 100000 | 35.9 | > 100000 | < 26.6 | > 100000 | < 23.2 |  | < 34.8 | > 100000 | < 48.8 | > 100000 | < 12.2 |  | 49000 | > 100000 | 78.9 | > 100000
